{
  "source": "paper PMC6600574",
  "about": "(Molecules, 2019)",
  "key": {"[1]": {"system": "recombinant human UGT1A7, 1A10, and UGT1A8", "assay": "Glucuronidation by recombinant human UGTs", "type": "in vitro ADME", "settings": "incubation with recombinant human UGT1A7, 1A10 and UGT1A8"}, "[2]": {"assay": "DPPH radical scavenging assay", "type": "biochemical", "settings": "DPPH in ethanol, 30 min", "method": "Ascorbic acid was serially diluted to a concentration range of 0.78–100 µg/mL. Ethanol (10%) was used as a blank. Ninety microliters of a […] DPPH (2,2-diphenyl-1-picrylhydrazyl) in ethanol were added to each well. The plates were incubated for 30 min and covered in a layer of foil. Color controls (negative controls) were prepared in the exact same manner as above, but distilled water was added to each well instead of DPPH. The absorbances were measured at a wavelength of 515 nm using a BIO-TEK Power-Wave XS multiplate reader (BIO-TEK Instruments, Winooski, VT, USA). From the absorbances an IC50 value was determined."}, "[3]": {"system": "CYP 1B1 (liver microsomes)", "assay": "Inhibition of hepatic microsome-catalyzed CYP oxidation", "type": "in vitro ADME, human", "settings": "CYP 1B1, substrate TFD008_1, liver microsomes", "method": "Incubations were carried out in a total volume of 100 µl of 100 mM Tris-HCl buffer (pH 7.4) in all black, flat-bottom Costar 96-well plates (Corning Incorporated, Corning, NY, USA). […] The samples were then preincubated at 37 °C for 10 min. The reactions were initiated by the addition of NADPH, and 0–10 µM 7-hydroxycoumarin was used as the standard. The fluorescent signal was measured with a Victor^2 1420 multilabel plate counter (PerkinElmer Lifesciences Wallac, Turku, Finland) with excitation and emission wavelengths of 405 and 460 nm, respectively. Fluorescence was monitored every 2 min for 40 min from where the concentration was calculated at the various time points. From these, oxidation rates (µM/min) and the relative remaining activity of the sample at different concentrations were calculated. The data were fit to sigmoidal dose-response curves with nonlinear regression, and IC50 values (the concentration at which the sample reduced the metabolism of the CYP substrate by 50%) were determined. […] This was analyzed using nonlinear equations in Graph Pad Prism, which produced IC50 values and its 95% confidence interval as the results."}},
  "data": [
    {"smiles": "C[C@@H]1O[C@@H](O[C@@H]2[C@@H](O)[C@H](OCCc3ccc(O)c(O)c3)O[C@H](CO)[C@H]2OC(=O)/C=C/c2ccc(O)c(O)c2)[C@H](O)[C@H](O)[C@H]1O", "note": "[Verbascoside]", "values": [
      {"measurement": "Metabolites formed", "setting": "[1]", "result": "low levels of glucuronide metabolites"},
      {"measurement": "IC50", "setting": "[2]", "result": "2500 ± 20", "unit": "nM"},
      {"measurement": "Microsomal IC50 (µM) with 95% Confidence Intervals", "setting": "[3]", "result": "No inhibition ^b"}
    ]}
  ]
}
